Reference: patent publication US8158811B2, “Unsaturated fatty hydroxy acid derivatives and the dermocosmetologic use thereof” (Pierre Fabre Dermo-Cosmetique, priority 2005, dated 2012)

Columns and labels:
[1] = test system: Interleukin 8; assay: release of Interleukin 8 by keratinocytes NHK stimulated with PMA + calcium ionophore A23187 (ELISA); type: cell-based, human; conditions: IL8 release
[2] = test system: intracellular AOSs, fibroblast line L929; assay: in vitro assay of intracellular AOSs (H2DCF-DA probe) after H2O2/iron oxidative stress; type: cell-based, murin; conditions: pre-incubation 3 h, L929
[3] = target: T1, PAR-2 receptors (Homo sapiens, UniProt P55085); assay: calcium flux induced by trypsin stimulation of PAR-2 receptors in HaCaT keratinocytes (Fluo-4/AM); type: cell-based; conditions: trypsin 10 nM
T1 construct: PAR-2 receptors for trypsin present in human keratinocytes from the HaCaT line; endogenous in cells; host or cells: HaCaT human keratinocytes
T1 sequence (P55085 26-397): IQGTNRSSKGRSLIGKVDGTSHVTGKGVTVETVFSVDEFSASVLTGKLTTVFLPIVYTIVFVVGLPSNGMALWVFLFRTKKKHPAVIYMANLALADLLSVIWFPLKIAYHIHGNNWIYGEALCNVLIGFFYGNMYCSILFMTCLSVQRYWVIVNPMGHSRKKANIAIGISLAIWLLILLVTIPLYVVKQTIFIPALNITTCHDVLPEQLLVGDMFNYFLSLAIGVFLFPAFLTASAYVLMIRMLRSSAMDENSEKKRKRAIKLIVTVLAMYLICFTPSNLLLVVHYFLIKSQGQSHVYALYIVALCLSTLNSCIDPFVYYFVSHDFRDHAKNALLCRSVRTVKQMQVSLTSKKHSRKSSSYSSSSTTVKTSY
Description: We therefore considered evaluating anti-PAR-2 activity of hydroxyl acid derivatives of formula I on the influx of intracellular calcium induced after specific stimulation by PAR-2 receptors for trypsin present in human keratinocytes from the HaCaT line.
This technique is based on the use of an esterified fluorescent probe by an AM group which facilitates its penetration by passive diffusion into the cell. The probe used is Fluo-4/AM. Only the de-esterified form bound to the calcium ion is excitable in fluorescence (at 485 nm) and emits at 535 nm.
In vitro, at the cell level, specific stimulation of the PAR-2 receptors by trypsin leads to mobilisation of intra and extracellular calcium detected with the aid of the fluorescent probe.

[4] = test system: murine melanome cell line B16-F10; assay: melanin synthesis, colorimetric assay, basal and after α-MSH; type: cell-based; conditions: basal situation, 30 μg/ml
Method: The modulating effect of unsaturated fatty hydroxy acid derivatives on melanogenesis was analysed. To do this, measurement of melanin synthesis by colorimetric assay was performed on a murine melanome cell line: line B16-F10.
The effect of products was investigated in a basal situation and after stimulation by α-MSH in order to determine depigmenting capacity.
Levels of extracellular and intracellular melanin were measured by spectrophotometry at a wavelength of 405 nm according to the protocol described by Anob et al., 1999. The amount of pigment was determined using a standard melanin range and analysis on Microwin software (Berthold Biotechnologies). A total protein assay was carried out for intracellular melanin samples by means of the BCA-Copper method at 540 nm. The standard range was made up using standard protein BSA (Bovine Serum Albumin).

Row | Compound | Percentage inhibition of the intracellular production of AOS ([2]; 0.02 ng/ml) [%] | Percentage inhibition of the intracellular production of AOS ([2]; 0.2 ng/ml) [%] | Percentage inhibition of the intracellular production of AOS ([2]; 2 ng/ml) [%] | Percentage inhibition of the intracellular production of AOS ([2]; 20 ng/ml) [%] | other results
1 | O=C(O)/C=C/CCCCCCCCCCCCCCO [n=13, R=H, Rn=H, R1=H, 17-hydroxy-heptadec-2t-enoic acid] | 3 | 13 | −1 | −10 | ED50 [1]: <3 mg/L
2 | O=C(O)/C=C/CCCCCCCCCCCO [n=10, R=H, Rn=H, R1=H, 14-hydroxy-tetradec-2t-enoic acid] | 11 | 4 | −20 | −34 | % inhibition ([3]; 10 μg/ml): −17%; % stimulation ([3]; 10 μg/ml): 15.33%; % inhibition ([3]; 30 μg/ml): −4%; % stimulation ([3]; 30 μg/ml): 14.10%; % inhibition ([3]; 100 μg/ml): 39%; % stimulation ([3]; 100 μg/ml): 9.84%; inhibition of melanin synthesis [4]: 15%
3 | O=C(O)C=CCCCCCO [n=4, R=H, Rn=H, R1=H] | 17 | 9 | 9 | 0 | 
4 | O=C(O)C(F)=CCCCCCO (mixture of isomers) [n=4, R=H, Rn=H, R1=F] | 10 | 6 | −4 | −36 | 
5 | O=C(O)C(F)=CCCCCCCCCCCCO [n=10, R=H, Rn=H, R1=F, 14-hydroxy-tetradec-2-fluoro-2-enoic acid] | 29 | 16 | 0 | −19 | 
6 | O=C(O)C=CCCCCO [n=3, R=H, Rn=H, R1=H] | 21 | 15 | 11 | 14 | 
7 | O=C(O)C(F)=CCCCCCCCCCCCCCCO [n=13, R=H, Rn=H, R1=F, 17-hydroxy-heptadec-2-fluoro-2-enoic acid] | 36 | 28 | 14 | −9 | % inhibition ([3]; 0.1 μg/ml): −1%; % stimulation ([3]; 0.1 μg/ml): 13.78%; % inhibition ([3]; 0.3 μg/ml): 6%; % stimulation ([3]; 0.3 μg/ml): 13.06%; % inhibition ([3]; 1 μg/ml): 9%; % stimulation ([3]; 1 μg/ml): 12.74%; % inhibition ([3]; 3 μg/ml): 7%; % stimulation ([3]; 3 μg/ml): 12.97%; % inhibition ([3]; 10 μg/ml): 42%; % stimulation ([3]; 10 μg/ml): 9.55%; ED50 [1]: <3 mg/L
8 | O=C(O)/C=C/CCCCCCCCCCO [n=9, R=H, Rn=H, R1=H, 13-hydroxy-tridec-2t-enoic acid] | 9 | 10 | 6 | −22 | 
